Results on eight molecules are retold here after patent US20160279110A1, “COMPOSITIONS AND METHODS FOR TREATING CANCER” (UNIVERSITY OF ROCHESTER, priority 2015, published 2016).

The test system of data set [1] is UPF1. Nature of the data set: Western blot of UPF1 CP generation in HEK293T cells. It counts as cell-based, human. As to conditions: 300 μg/mL CHX or 1 μM staurosporine. On the procedure:
(§1) FIG. 10b is essentially as in a, but using lysates of HEK293T cells exposed to 1 μM staurosporine. FIG. 10c is essentially as in a, but using lysates of human Daudi B lymphoblasts exposed to 40 ng/mL TNF-α or 2 μg/mL doxorubicin. FIG. 10d is essentially as in a, but using lysates of human Jurkat T cells exposed to 1 μM staurosporine. FIG. 10e is essentially as in a, but using lysates of canine MDCK cells exposed to 2 μM staurosporine. FIG. 10f is essentially as in a, but using lysates of bovine MDBK cells exposed to 2 μM staurosporine. FIG. 10g is essentially as in a, but using lysates of Chinese Hamster Ovary (CHO) cells exposed to 2 μM staurosporine. FIG. 10h is essentially as in a, but using lysates of African green monkey COS-7 cells exposed to 2 μM staurosporine or 2 μg/mL doxorubicin. At least two apoptotic inducers were used for each cell line, and at least two cell lines were tested with each apoptotic inducer.
(§2) Cells were lysed, and protein was isolated using hypotonic buffer that consists of 10 mM Tris-C1, pH 7.4, 10 mM NaCl, 2 mM EDTA, 0.5% Triton X-100, 2 mM benzamidine, 1 mM PMSF, NEM (50 μg/mL), 1× phosphatase inhibitor cocktail (Roche), and 1× protease inhibitor cocktail (Roche; Basel, Switzerland). […] Immunoreactivity was assessed using SuperSignal West Pico or Femto (Pierce Biotechnology; Waltham, Mass.). […]
A general note: A western blot detects proteins with antibodies after separation by electrophoresis.

Data set [2] concerns UPF1. Nature of the data set: Western blot of UPF1 CP generation in C2C12 myoblasts. As to conditions: C2C12, CHX 100 or 300 μg/ml, ETP 100 μM 5 h pulse. It is filed as cell-based, mouse. The method, then:
CHX concentrations were 100 or 300 μg ml^−1, and a 5 h pulse of ETP was used at 100 μM. At least two apoptotic inducers were used for each cell line, and at least two cell lines were tested with each apoptotic inducer.
Cells were lysed, and protein was isolated using hypotonic buffer that consists of 10 mM Tris-C1, pH 7.4, 10 mM NaCl, 2 mM EDTA, 0.5% Triton X-100, 2 mM benzamidine, 1 mM PMSF, NEM (50 μg/mL), 1× phosphatase inhibitor cocktail (Roche), and 1× protease inhibitor cocktail (Roche; Basel, Switzerland). After 10 minutes of incubation at 4° C., NaCl was added to 150 mM, and lysates were cleared by centrifugation. […] Immunoreactivity was assessed using SuperSignal West Pico or Femto (Pierce Biotechnology; Waltham, Mass.).

Data set [3] has as its system UPF1. Nature of the data set: Western blot of UPF1 CP generation in HeLa cells. It is filed as cell-based, human. The method, then: […] At least two apoptotic inducers were used for each cell line, and at least two cell lines were tested with each apoptotic inducer.
UPF1 CP may result from cleavage of endogenous UPF1 or the transfected construct, but the use of anti-FLAG allows unambiguous assignment of UPF1-FLAG CP as derived from MYC-UPF1-FLAG. α, anti; h, hour(s). […] To serve as molecular weight standards for UPF1 CP, lysates of MCF7 cells transiently expressing a UPF1-FLAG protein encompassing the residues specified were also analyzed. […] The D37 cleavage site encompassing P4-P1 residues is boxed. […] Immunoblots are representative of at least 2 independent experiments.
as §2
Inventories of in vivo apoptotic cleavage events indicate that cleavage specificity in living cells is determined chiefly by an aspartic acid residue at the P1 position; P4-P2 residues contribute far less to specificity in cells than is indicated by in vitro-derived peptide-based substrate profiles. […]

Data set [4] concerns UPF1. Nature of the data set: Western blot of UPF1 CP generation in MDCK cells. It is filed as cell-based, canine. To be noted: 2 μM staurosporine. The method, then: as §1
(§3) Cells were lysed, and protein was isolated using hypotonic buffer that consists of 10 mM Tris-C1, pH 7.4, 10 mM NaCl, 2 mM EDTA, 0.5% Triton X-100, 2 mM benzamidine, 1 mM PMSF, NEM (50 μg/mL), 1× phosphatase inhibitor cocktail (Roche), and 1× protease inhibitor cocktail (Roche; Basel, Switzerland). […] Immunoreactivity was assessed using SuperSignal West Pico or Femto (Pierce Biotechnology; Waltham, Mass.).

For data set [5], the system named is UPF1. Nature of the data set: Western blot of UPF1 CP generation in MDBK cells. It is filed as cell-based, bovine. As to conditions: 2 μM staurosporine. The method, then: as §1, §3
The subject of data set [6] is UPF1. Nature of the data set: Western blot of UPF1 CP generation in CHO cells. It is filed as cell-based, Chinese hamster. As to conditions: 2 μM staurosporine. The method, then:
as §1, §3

The subject of data set [7] is UPF1. Nature of the data set: Western blot of UPF1 CP generation in Jurkat T cells. It is filed as cell-based, human. To be noted: 1 μM staurosporine. On the procedure:
as §1, §2

The subject of data set [8] is UPF1. Nature of the data set: Western blot of UPF1 CP generation in COS-7 cells. It is filed as cell-based, African green monkey. To be noted: COS-7, 2 μM staurosporine or 2 μg/mL doxorubicin. The method, then:
as §1, §3

The subject of data set [9] is UPF1. Nature of the data set: Western blot of UPF1 CP generation in Daudi B lymphoblasts. It is filed as cell-based, human. To be noted: 40 ng/mL TNF-α or 2 μg/mL doxorubicin. The method, then: as §1, §2
In data set [10] the test system is caspases. Nature of the data set: Caspase inhibitor pre-incubation before CHX, UPF1 CP western blot in HEK293T cells. It is filed as cell-based, human. To be noted: inhibitor preincubated 4 h, then CHX 300 μg/ml. The method, then: FIG. 3b is a diagram of N-terminally FLAG-tagged human UPF1, showing its reactivity with anti(α)-UPF1(1-416). CH, cysteine-t histidine-rich region. […] Blots are representative of two independent experiments.
Cells were lysed, and protein was isolated using hypotonic buffer that consists of 10 mM Tris-C1, pH 7.4, 10 mM NaCl, 2 mM EDTA, 0.5% Triton X-100, 2 mM benzamidine, 1 mM PMSF, NEM (50 μg/mL), 1× phosphatase inhibitor cocktail (Roche), and 1× protease inhibitor cocktail (Roche; Basel, Switzerland). After 10 minutes of incubation at 4° C., NaCl was added to 150 mM, and lysates were cleared by centrifugation. […] Immunoreactivity was assessed using SuperSignal West Pico or Femto (Pierce Biotechnology; Waltham, Mass.). […]

Data set [11] addresses T1, MYC-UPF1-FLAG WT, Q92900.
T1 chain: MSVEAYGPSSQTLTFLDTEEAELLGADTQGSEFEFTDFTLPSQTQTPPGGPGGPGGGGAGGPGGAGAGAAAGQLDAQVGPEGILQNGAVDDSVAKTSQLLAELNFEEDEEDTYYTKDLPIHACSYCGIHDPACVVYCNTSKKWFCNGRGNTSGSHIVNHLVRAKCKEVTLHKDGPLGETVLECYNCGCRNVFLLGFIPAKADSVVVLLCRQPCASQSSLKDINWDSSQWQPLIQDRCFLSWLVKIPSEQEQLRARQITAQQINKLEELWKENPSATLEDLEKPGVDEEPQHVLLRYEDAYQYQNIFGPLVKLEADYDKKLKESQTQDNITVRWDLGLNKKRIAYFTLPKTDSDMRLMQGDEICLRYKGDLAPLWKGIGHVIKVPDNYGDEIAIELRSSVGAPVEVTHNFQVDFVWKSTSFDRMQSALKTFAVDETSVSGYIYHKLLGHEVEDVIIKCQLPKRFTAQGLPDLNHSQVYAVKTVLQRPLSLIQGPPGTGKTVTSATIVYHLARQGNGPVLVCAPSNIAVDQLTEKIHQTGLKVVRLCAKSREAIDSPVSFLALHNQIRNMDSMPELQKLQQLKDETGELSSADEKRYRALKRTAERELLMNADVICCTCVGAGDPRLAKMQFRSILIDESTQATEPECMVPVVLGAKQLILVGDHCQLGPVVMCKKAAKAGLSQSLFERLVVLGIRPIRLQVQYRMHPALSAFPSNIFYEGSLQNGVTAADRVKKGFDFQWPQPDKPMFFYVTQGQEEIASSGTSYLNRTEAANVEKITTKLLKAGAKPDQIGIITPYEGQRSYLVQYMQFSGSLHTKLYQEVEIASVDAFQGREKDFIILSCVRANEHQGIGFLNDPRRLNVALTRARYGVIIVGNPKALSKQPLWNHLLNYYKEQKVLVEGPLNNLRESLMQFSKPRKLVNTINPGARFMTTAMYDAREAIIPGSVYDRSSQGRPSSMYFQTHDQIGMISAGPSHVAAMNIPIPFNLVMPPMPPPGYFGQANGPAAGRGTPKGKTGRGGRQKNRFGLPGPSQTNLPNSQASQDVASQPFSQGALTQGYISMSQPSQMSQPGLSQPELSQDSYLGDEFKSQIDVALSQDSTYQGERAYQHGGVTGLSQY

On to `C[C@@H]1C[C@@H]([C@H](O)CC2CC(=O)NC(=O)C2)C(=O)[C@@H](C)C1` [CHX, cycloheximide], for which the “UPF1 CP generation” value in data set [1] is “Generation of the UPF1 CP prior to full CASP9 and CASP3 cleavage”; in [2], “generated a UPF1 CP prior to maximal CASP3 cleavage”. Moreover, the “UPF1 CP level relative to uncleaved UPF1” value in [3] (HeLa expressing UPF1 WT, D27N or D75N, 300 μg/mL CHX, anti-FLAG immunoblot) is reported as “about one-third the level of uncleaved UPF1”.
For the molecule `COc1cc([C@@H]2c3cc4c(cc3[C@@H](O[C@@H]3O[C@@H]5CO[C@@H](C)O[C@H]5[C@H](O)[C@H]3O)[C@H]3COC(=O)[C@H]23)OCO4)cc(OC)c1O` [ETP, etoposide], the “UPF1 CP generation” value is “generated a UPF1 CP prior to maximal CASP3 cleavage” in data set [2]; “induced generation of a UPF1 CP before full induction of cleaved initiator caspase 9 (CASP9) and cleaved executioner CASP3” in data set [3] (HeLa, ETP 44 μM 6 h).
Consider `CN[C@@H]1C[C@H]2O[C@@](C)([C@@H]1OC)n1c3ccccc3c3c4c(c5c6ccccc6n2c5c31)C(=O)NC4` [staurosporine], for which the “UPF1 CP generation” value was “yielded two UPF1 CPs, prior to full cleavage of CASP9 and CASP3” in data set [1]; “led to UPF1 CP production” in data set [4]; “led to UPF1 CP production” in data set [5]; “led to UPF1 CP production” in data set [6]; “yielded a UPF1 CP prior to maximal cleavage of CASP3 or PARP” in data set [7]; “yielded a UPF1 CP” in data set [8].
Regarding TNF-α, the “UPF1 CP generation” value in data set [9] was “led to generation of the UPF1 CP prior to maximal PARP cleavage”.
Regarding Z-DEVD-fmk, the “level of UPF1 CP after caspase inhibitor” value in data set [10] is “nearly undetectable”.
Regarding Z-VAD-fmk, in data set [10], the “level of UPF1 CP after caspase inhibitor” value was “nearly undetectable”.

B1: Active recombinant Caspase 3 (protein)
chain: SGISLDNSYKMDYPEMGLCIIINNKNFHKSTGMTSRSGTDVDAANLRETFRNLKYEVRNKNDLTREEIVELMRDVSKEDHSKRSSFVCVLLSHGEEGIIFGTNGPVDLKKITNFFRGDRCRSLTGKPKLFIIQACRGTELDCGIETDSGVDDDMACHKIPVEADFLYAYSTAPGYYSWRNSKDGSWFIQSLCAMLKQYADKLEFMHILTRVNRKVATEFESFSFDATFHAKKQIPCIVSMLTKELYFYH
B1: in data set [11], the “in vitro caspase cleavage, western blot” value is “CASP3 and CASP7 cleaved MYC-UPF1-FLAG WT”.

B2: Active recombinant Caspase 7 (protein)
chain: AKPDRSSFVPSLFSKKKKNVTMRSIKTTRDRVPTYQYNMNFEKLGKCIIINNKNFDKVTGMGVRNGTDKDAEALFKCFRSLGFDVIVYNDCSCAKMQDLLKKASEEDHTNAACFACILLSHGEENVIYGKDGVTPIKDLTAHFRGDRCKTLLEKPKLFFIQACRGTELDDGIQADSGPINDTDANPRYKIPVEADFLFAYSTVPGYYSWRSPGRGSWFVQALCSILEEHGKDLEIMQILTRVNDRVARHFESQSDDPHFHEKKQIPCVVSMLTKELYFSQ
For the molecule B2, in [11], the “in vitro caspase cleavage, western blot” value was “CASP3 and CASP7 cleaved MYC-UPF1-FLAG WT”.
